Laboratory results reported in patent publication US12098416B2, “Assessment of biological contamination and biological contamination treatment” (Halliburton Energy Services, Inc., priority 2019, dated 2024).

Columns and labels:
[1] = tested on: SRB (sulfate reducing bacteria); assay: Biocide efficacy study on low TDS (1%) fluid sample, Rapid SRB Detection Pouches (thin-film culture device); assay type: cell-based; conditions: for reduction in SRB count: 24-hour biocide contact
Method: In this example, an assessment of biological contamination was performed using culture devices including indicator reagents. More specifically, SRB enumeration in various water samples including SRB was performed using thin-film culture devices (“pouches”). Three milliliters of two samples, Sample A and Sample B, were introduced into separate Rapid SRB Detection Pouches (manufactured by 3M™). The pouches were sealed and incubated at 32° C. The pouches were incubated upright to allow the precipitate to settle toward the bottom of pouch. The SRB count of each sample was measured at multiple time intervals using a visual technique where the color of the samples was compared to reference colors as shown in FIGS. 2A and 2B. The degree of blackening of the sample at certain time points compared to the reference is indicative of SRB count.
A biocide efficacy study on a low TDS (1%) fluid sample using a thin-film culture device was evaluated and compared to the traditional bug-bottle approach. The low TDS fluid sample was inoculated with mature SRB. Seventy-two 3 mL doses of the fluid sample were then introduced into 72 Rapid SRB Detection Pouches. […] The dosages were based on the standard US Environmental Protection Agency (EPA) recommendations for each respective biocide:
(§1) The fluid samples were then incubated at a temperature of 32° C. After approximately 24 hours of inoculation, the SRB count was measured using the incubation and referencing procedure of Example 1. The bug bottle numbers were determined by counting the number of bottles in a serial dilution which had formed a visible black precipitate.

[2] = tested on: SRB (sulfate reducing bacteria); assay: Biocide efficacy study on high TDS (10%) fluid sample, Rapid SRB Detection Pouches (thin-film culture device); assay type: cell-based; conditions: 4-hour biocide contact
Method: A biocide efficacy study on a high TDS (10%) fluid sample using a thin-film culture device was evaluated and compared to the traditional bug-bottle approach. The high TDS fluid sample was inoculated with mature SRB. Seventy-two 3 mL doses of the fluid sample were then introduced into 72 respective Rapid SRB Detection Pouches.
as §1

[3] = dose level not clearly singled out

CCCCCCCCCC[N+](C)(C)CCCCCCCCCC.[Cl-] [Quat, didecyldimethyl ammonium chloride]
reduction in SRB count [1, 3]: all but the didecyldimethyl ammonium chloride and THPS low dose biocide groups demonstrated a reduction in SRB count | reduction in SRB count in comparison to the control [2, 3]: all but the Quat and THPS low dose biocide groups demonstrated a reduction in SRB count

tetrakis(hydroxymethyl)phosphonium sulfate [THPS]
reduction in SRB count in comparison to the control ([1]; 4-hour biocide contact, low dose (THPS Low 25 ppm)): all but the THPS Low biocide group demonstrated a reduction in SRB count | reduction in SRB count ([1]; low dose (THPS Low 25 ppm)): all but the didecyldimethyl ammonium chloride and THPS low dose biocide groups demonstrated a reduction in SRB count | reduction in SRB count in comparison to the control ([2]; low dose (THPS Low 25 ppm)): all but the Quat and THPS low dose biocide groups demonstrated a reduction in SRB count
